Assay results taken from patent US20240166598A1, “COMPOUNDS, COMPOSITIONS, AND METHODS OF USING THE SAME” (priority 2021, published 2024).

Assays:
[1] = molecular target: T1, SARS CoV-2 PLpro (Severe acute respiratory syndrome coronavirus 2 (2019-nCoV) (SARS-CoV-2), UniProt P0DTD1); format: biochemical; conditions: 20 μM
[2] = for In vitro CIint / Scale-up CIint: human
[3] = in vitro; conditions: human, microsomes
[4] = in vitro; conditions: human, Caco-2
[5] = tested on: Vero E6 cells; conditions: African green monkey
[6] = tested on: A549-hACE2 cells; experiment: Cytotoxicity in A549-hACE2 cells (CellTiter-Glo); conditions: assay conditions
[7] = molecular target: human USP7 (Homo sapiens (Human), UniProt Q93009); experiment: USP7 selectivity counter-assay (Ub-AMC); format: biochemical; conditions: catalytic domain of human USP7; up to 30 μM for CPI-169
Procedure: (§1) Assay conditions were similar to the PLpro primary assay, with the following substitutions: USP7 assays contained 4 nM USP7 and 0.5 uM Ub-AMC (Boston Biochem); USP14 assays contained 1.7 uM USP14, 4 uM Ub-AMC, and the addition of 5% glycerol to Buffer B. PLpro activity with ISG15-AMC and Ub-AMC were assayed in a manner similar to the PLpro primary assay. PLpro and substrate concentrations were modified as follows: 80 nM PLpro was assayed with 0.5 uM Ub-AMC, and 4 nM PLpro was assayed with 0.5 uM ISG15-AMC.
as §1, with “to Buffer B.PLpro activity with” for “to Buffer B. PLpro activity with”, “with 0.5 μM ISG15-AMC.” for “with 0.5 uM ISG15-AMC.”

[8] = tested on: SARS-CoV-2 USA/WA1/2020; experiment: microbe, parasite or virus in culture; format: cell-based; conditions: for IC50: Severe acute respiratory syndrome coronavirus 2, 48 h, read-out: IC50 (viral RNA by RT-qPCR)
[9] = tested on: SARS-CoV-2, Isolate USA-WA1/2020; experiment: microbe, parasite or virus in culture; format: cell-based; conditions: for EC50: Severe acute respiratory syndrome coronavirus 2, Vero C1008, read-out: EC50 against infectious SARS-CoV-2 (plaque formation)
[10] = molecular target: T1, SARS CoV-2 PLpro; experiment: biochemical; format: binding
[11] = molecular target: T1, SARS CoV-2 PLpro; experiment: cell-based; conditions: read-out: FlipGFP-PLpro assay EC50
[12] = molecular target: T1, SARS CoV-2 PLpro; experiment: biochemical; conditions: Table 8; read-out: FRET Enzymatic assay IC50

Sequence of human USP7 (Q93009 214-521 limits assumed): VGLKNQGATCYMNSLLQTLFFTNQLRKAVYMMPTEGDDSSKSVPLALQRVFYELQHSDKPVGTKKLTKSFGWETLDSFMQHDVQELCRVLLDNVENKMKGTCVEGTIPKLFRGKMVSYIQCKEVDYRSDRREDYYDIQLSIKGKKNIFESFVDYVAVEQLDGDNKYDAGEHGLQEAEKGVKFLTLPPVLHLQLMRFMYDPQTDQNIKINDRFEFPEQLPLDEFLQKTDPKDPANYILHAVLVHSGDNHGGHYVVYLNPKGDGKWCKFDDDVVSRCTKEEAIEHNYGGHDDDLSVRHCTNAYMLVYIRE

**Q.** With `CC(C)c1cc(C(C)C)c(CC(=O)NS(=O)(=O)Oc2c(C(C)C)cccc2C(C)C)c(C(C)C)c1` [Avasimibe] as the molecule, how does the “result in the PLpro screen, in words” value [1] read?
**A.** weak PLpro inhibitors

**Q.** What does the source list for `Cc1ccc(NC2CNC2)cc1C(=O)N[C@H](C)c1cccc(-c2ccc(CNC3CCCC3)s2)c1` [XR8-23]?
**A.** In vitro CIint [2]: 5.89 μL/min/mg protein; Scale-up CIint [2]: 7.38 mL/min/kg; half-life [3]: 3.92 h; Papp A→B [4]: 0.16 ×10⁻⁶ cm/s; Papp B→A [4]: 1.56 ×10⁻⁶ cm/s; concentration at which no toxicity was observed [5]: < 50 µM; concentration at which cytotoxicity was not observed [6]: < 10 µM

**Q.** With `Cc1ccc(N)cc1C(=O)N[C@H](C)c1cccc2ccccc12` [GRL0617, reference compound] as the molecule, how does the Papp A→B [4] read?
**A.** 12.4 ×10⁻⁶ cm/s

**Q.** What about the Papp B→A [4] of the same molecule?
**A.** 12.9 ×10⁻⁶ cm/s

**Q.** What about the “inhibition of USP7-catalyzed Ub-AMC hydrolysis” value [7] of the same molecule?
**A.** did not inhibit

**Q.** What about the IC50 [8] of the same molecule?
**A.** > 20 µM

**Q.** And the EC50 [9]?
**A.** 21.7 ± 1.6 µM

**Q.** For `Cc1ccc(NC2CNC2)cc1C(=O)N[C@H](C)c1cccc(-c2cccs2)c1` (single isomer, unassigned) [ZN-3-80], which “In vitro CIint” value [2] is on record?
**A.** 5.64 μL/min/mg protein

**Q.** What about the “Scale-up CIint” value [2] of the same molecule?
**A.** 7.07 mL/min/kg

**Q.** What about the “stability in human liver microsome stability assays, in words” value ([2]; microsomes) of the same molecule?
**A.** more stable than GRL0617

**Q.** And the half-life [3]?
**A.** 4.1 h

**Q.** What about the Ave ka ([10]; SPR association rate, average of replicates) of the same molecule?
**A.** 351000 M⁻¹ s⁻¹

**Q.** What about the ka1 ([10]; SPR association rate, replicate 1) of the same molecule?
**A.** 291000 M⁻¹ s⁻¹

**Q.** And the ka2 ([10]; SPR association rate, replicate 2)?
**A.** 334000 M⁻¹ s⁻¹

**Q.** What about the ka3 ([10]; SPR association rate, replicate 3) of the same molecule?
**A.** 303000 M⁻¹ s⁻¹

**Q.** What about the ka4 ([10]; SPR association rate, replicate 4) of the same molecule?
**A.** 477000 M⁻¹ s⁻¹

**Q.** And the Ave kd ([10]; SPR dissociation rate, average of replicates)?
**A.** 0.327 s⁻¹

**Q.** And the kd1 ([10]; SPR dissociation rate, replicate 1)?
**A.** 0.318 s⁻¹

**Q.** And the kd2 ([10]; SPR dissociation rate, replicate 2)?
**A.** 0.369 s⁻¹

**Q.** And the kd3 ([10]; SPR dissociation rate, replicate 3)?
**A.** 0.290 s⁻¹

**Q.** What about the kd4 ([10]; SPR dissociation rate, replicate 4) of the same molecule?
**A.** 0.332 s⁻¹

**Q.** For `CCOc1nc2cccc(C(=O)O)c2n1Cc1ccc(-c2ccccc2-c2nnn[nH]2)cc1` [candesartan], which “result in the PLpro screen, in words” value [1] is on record?
**A.** weak PLpro inhibitors

**Q.** With `CCS(=O)(=O)N1CCC([C@@H](C)n2c(C)c(C(=O)NCc3c(OC)cc(C)[nH]c3=O)c3ccccc32)CC1` [CPI-169] as the molecule, how does the “inhibition of USP7-catalyzed Ub-AMC hydrolysis” value [7] read?
**A.** not able to inhibit USP7 up to a concentration of 30 μM

**Q.** Which “In vitro CIint” value [2] does the source give for `Cc1ccc(NC2CNC2)cc1C(=O)N[C@H](C)c1cccc(-c2ccc(CN3CCCC3)s2)c1` [XR8-24] here?
**A.** 9.60 μL/min/mg protein

**Q.** What about the “Scale-up CIint” value [2] of the same molecule?
**A.** 12.04 mL/min/kg

**Q.** What about the half-life [3] of the same molecule?
**A.** 2.41 h

**Q.** And the Papp A→B [4]?
**A.** 0.14 ×10⁻⁶ cm/s

**Q.** And the Papp B→A [4]?
**A.** 3.06 ×10⁻⁶ cm/s

**Q.** What about the “concentration at which no toxicity was observed” value [5] of the same molecule?
**A.** < 50 µM

**Q.** And the “effect of treatment on viral RNA versus remdesivir (10 μM)” value ([8]; 20 μM)?
**A.** not significantly different from that of remdesivir

**Q.** What about the IC50 [8] of the same molecule?
**A.** 1.2 ± 0.2 µM

**Q.** What about the “concentration at which cytotoxicity was not observed” value [6] of the same molecule?
**A.** < 50 µM

**Q.** What about the EC50 [9] of the same molecule?
**A.** 2.5 ± 1.9 µM

**Q.** What does the source list for `Cc1ccc(NC2CNC2)cc1C(=O)N[C@H](C)c1cccc(-c2ccc(CN3CC[C@H](O)C3)s2)c1` [XR8-57]?
**A.** In vitro CIint [2]: 0.27 μL/min/mg protein; Scale-up CIint [2]: 0.34 mL/min/kg; half-life [3]: 85.4 h

**Q.** Which EC50 [11] does the source give for `Cc1ccc(OC2CNC2)cc1C(=O)N[C@H](C)c1cccc(-c2ccc(CN3CCCC3)o2)c1` here?
**A.** > 60 µM

**Q.** And the IC50 [12]?
**A.** 4.58 ± 0.92 µM

**Q.** Which EC50 [11] does the source give for `Cc1ccc(OC2CNC2)cc1C(=O)N[C@H](C)c1cccc(-c2ccc(CN[C@H]3CC[C@@H](O)C3)o2)c1` here?
**A.** > 60 µM

**Q.** What about the IC50 [12] of the same molecule?
**A.** 3.02 ± 0.58 µM

**Q.** Which “concentration at which no toxicity was observed” value [5] does the source give for `Cc1ccc(NC2CNC2)cc1C(=O)N[C@H](C)c1cccc(-c2ccc(CN[C@H]3CC[C@@H](O)C3)s2)c1` (single isomer, unassigned) [XR8-89] here?
**A.** < 50 µM

**Q.** What about the “antiviral activity, in words” value [9] of the same molecule?
**A.** superior antiviral potency to GRL017

**Q.** With `Cc1ccc(OC2CNC2)cc1C(=O)N[C@H](C)c1cccc(-c2ccc(CN[C@H]3CC[C@@H](C(=O)OC[C@H]4O[C@@H](n5ccc(NO)nc5=O)[C@H](O)[C@@H]4O)C3)s2)c1` as the molecule, how does the EC50 [11] read?
**A.** > 20 µM

**Q.** What about the IC50 [12] of the same molecule?
**A.** 0.75 ± 0.05 µM

**Q.** With `Cc1ccc(OC2CNC2)cc1C(=O)N[C@H](C)c1cccc(-c2ccc(CN[C@H]3CC[C@@H](C(=O)NCCOCCOCCOCCOCCNc4cccc5c4C(=O)N(C4CCC(=O)NC4=O)C5=O)C3)s2)c1` (stereo partly shown) as the molecule, how does the EC50 [11] read?
**A.** > 20 µM

**Q.** What about the IC50 [12] of the same molecule?
**A.** 1.67 ± 0.33 µM
